Measured values from patent publication US20030104443A1, “AFAP sequences, polypeptides, antibodies and methods” (University of West Virginia, priority 2001, published 2003).

B1: PKCα phosphorylated rAFAP-110: rAFAP-110 phosphorylated with recombinant PKCα (protein, UniProt Q90738 1-729, looked up)
Actin filament-associated …: MEELIVELRLFLELLDHEYLTSTVREKKAVITNILLRIQSSKGFEIKEHVQKPEVANSLPAPPQMPLPEIPQQWLPPDNGPPPLPTSSLPEGYYEEAVPVSPGKAPEYITSNYDSDAMSSSYESYDEEEEDGKGKKMRHQWPSEEASMDLVKDAKICAFLLRKKRFGQWTKLLCVIKENKLLCYKSSKDQQPQMELLLNDCSITYIPKDSKKKKHELKISHQGADALVLAVQSKEQAEQWLKVIKDVCSNCTGTVDSDGPLSSSPVHKTELEKKLSSERPSSDGEGAVENGITTVCNGKEQVKRKKSSKTEAKGTVTKVTGKKITKIIGLGKKKPSTDEQTSSAEEDVPTCGYLNVLSNNRWRERWCRVKDNKLIFHKDRTDLKTHIVSIPLRGCEVIPGLDSKHPLTFRLLRNGQEVAVLEASSSEDMGRWIGMLLAETGSSTDPGALHYDYIDVEMTASVIQAAKQTFCFMNRRVISTNPYRGSTANGYACPSGMALHYDDVPCINGSFKGKKPPATANGITGKVRTLNSQPKKPESVSCVKRTASNAEQYKYGKNRVEAVAKRLQSKEEELLKRKEALRNRLAQLRKERKDLRAAIEVNAGRKTQVILEDKLKKLEEECKTKEAERVNLELELTEVKESLKKALAGGITLGLAIEPKSGTSSPQSPIFKHRTLENSPISSCDTSDTECSIPVNSAAALKRPPSSNNSPCRGHVLRKAKEWEMKNGT
modifications: PKCalpha phosphorylated
notes: rAFAP-110 phosphorylated with recombinant PKCα

Assays:
[1] = tested on: AFAP-110 in C3H10T1/2 cells; test: Phosphoamino acid analysis of AFAP-110 after PMA treatment; format: cell-based; conditions: 100 nM PMA, 15 min; relative to 4α-PDD treatment; densitometry
Experimental: (1, PKCα (0.5 μg); 2, PKCα (0.5 μg)+rAFAP-110 (10 μg); 3, rAFAP-110 (10 μg)). Data are representative of three experiments. […] C3H10T1/2 cells were serum-starved in phosphate-free media supplemented with radiolabeled ^32P-orthophosphate overnight and treated with 100 nM PMA, 100 nM 4α-PDD, or DMSO, the vehicle used. Cells were lysed after 15 min and AFAP-110 was immunoprecipitated using the antibody F1. Radiolabeled AFAP-110 was isolated by SDS-PAGE and subjected to phosphoamino acid analysis.
To test whether AFAP-110 could be phosphorylated in cells in response to PKC activation in vivo, serum-starved C3H10T1/2 fibroblasts labeled with ^32P-orthophosphate were stimulated with 100 nM PMA for 15 min to activate PKC. Cos-1 cells were maintained and transfected as previously described (Guappone and Flynn, 1997, supra). C3H10T1/2 cells were cultured as previously described (Qian et al., 2000, supra). Transient transfections of C3H10T1/2 cells were carried out using SuperFect (QIAGEN, Santa Clarita, Calif.) as previously described (Qian et al., 2000, supra).
Phosphoamino Acid Analysis C3H10T1/2 cells were grown to 60% confluence in 100-mm culture dishes, serum starved overnight, and then stimulated with 100 nM PMA or 100 nM 4α-PDD for 15 min. […] Relative intensity compared with background of radiation from spots was quantitated with ImageQuant software (Molecular Dynamics, Sunnyvale, Calif.).

C3H10T1/2 cells = test: Immunofluorescence of actin structures after PMA treatment; format: cell-based
Experimental: For PKC activation with PMA, C3H10T1/2 cells were transfected with plasmids encoding AFAP-110. Twenty-four hours after transfections, the cells were serum starved overnight. PMA at 100 nM was used to activate PKC for 60 min. Cells were fixed and permeablized as previously described (Qian et al., 1998, supra). After washing, cells were labeled with BODIPY 650/665 phalloidin (Molecular Probes, Eugene, Oreg.) and 4C3 antibody for 20 min. Cells were washed again and then labeled with ALEXA 488 (Molecular Probes) for 25 min. Cells were washed and mounted on slides with Fluoromount (Fisher, Pittsburgh, Pa.). For serum induction experiments, C3H10T1/2 cells were serum starved overnight, and then serum-complete media was added. Cells on coverslips were washed and fixed at 15-min time points >2 h. Polyclonal antibody F1 and TRITC-labeled anti-rabbit secondary antibody were used to visualize endogenous AFAP-110, with washings as above. BODIPY 650/665 phalloidin was used to visualize actin. A Zeiss LSM 510 microscope (Thornwood, N.Y.) was used to gather images, which were recolored from grayscale. Scale bars were generated and inserted by LSM 510 software (Carl Zeiss, Thornwood, N.Y.).
Immunofluorescence labeling and imaging was carried out as described. C3H10T1/2 cells expressing AFAP-110 were treated with either 100 nM PMA (A1-A3) or 100 nM 4α-PDD (A4-A6) for 15 min after overnight serum starvation. AFAP-110 is represented in red (A1 and A4), whereas actin is represented in green (A2 and A5). (A3 and A6) Overlap images of AFAP-110 and actin. Arrows indicate colocalization of AFAP-110 with dynamic actin structures: white arrows, filopodia; gray arrows, lamellipodia; black arrows, actin filaments in the top panel and disrupted actin filaments/rosettes in the bottom panel. […] Immunofluorescence labeling and imaging were carried out as described in Experimental Procedures. C3H10T1/2 cells coexpressing GFP-AFAP-110 (B1) and myristoylated, Flag-tagged PKC were labeled to show Flag-tagged PKC (B2) and actin (B3). Arrows indicate colocalization of AFAP-110 with dynamic actin structures: white arrows label filopodia and black arrows label lamellipodia. […] Immunofluorescence labeling and imaging were carried out as described. C3H10T1/2 cells were transfected with pCMV-GFP-AFAP-110 (C1-C6) and pCMV-GFP-AFAP^Δ180-226 (C7-C9). PMA at 100 nM was used to stimulate the cells for 1 h. C1, C4, and C7; green GFP fusion protein images; C2, C5, and C8; X actin images; C3, C6, and C9, overlap images of GFP fusion protein and actin images.

actin filaments [2] = test: Low-speed cosedimentation assay (20,800×g), actin filament cross-linking; format: biochemical; conditions: 0.5 μM protein, 2 μM actin filaments; FIG. 13A
Text: (§1) Binding constants were derived from the sedimentation of rAFAP-110 by actin. Accordingly, rAFAP-110 in the pellet and supernatant correspond to the bound and free rAFAP-110, respectively. The sum of densities of rAFAP-110 bands in the supernatant and pellet corresponds to the total mass of rAFAP-110 in the sample. The data representing the bound rAFAP-110 as a function of free rAFAP-110 were fit by nonlinear least squares to both the Langmuir (B=BMAX/(1+Kd/F)) and […] 2 μM F-actin filaments and different concentrations of rAFAP-110 in 5 mM MgCl2, 1 mM EGTA, 2 mM ATP, and 50 mM KCl at 20,800×g for 30 min at 4° C. After the centrifugation, both supernatant and pellets were analyzed by SDS-PAGE gel. Confocal microscopy assays were performed as described (Ishikawa et al., 1998, J. Biol. Chem., 273:26991-26997). Briefly, 2 μM F-actin containing 10% rhodamine-phalloidin-labeled F-actin were mixed with different concentrations of rAFAP-110 or other purified recombinant proteins in 5 mM MgCl2, 1 mM EGTA, 2 mM ATP, and 50 mM KCl at RT for 30 min. After the incubation, the reactions were applied between glass slides and coverslips and observed under confocal microscopy (Zeiss, Oberkochen, Germany). Samples for negative staining were adsorbed to grids coated with nitrocellulose and stabilized with carbon (Ernest F. Fullam, Latham, N.Y.). Unbound protein was removed by successive washes with buffer and water before staining with 1% uranylacetate (Cooper and Pollard, 1982, Methods Enzymol., 85(PtB), 182-210; Pollard and Cooper, 1982, Methods Enzymol., 85(PtB), 211-233).
Actin filaments are unable to efficiently pellet at 20,800×g unless cross-linked to form heavier particles (either isotropic networked or bundled actin filaments; Cooper and Pollard, 1982, supra; Pollard and Cooper, 1982, supra; Meyer et al., 1990, J. Cell. Biol. 110:2013-2024; Wachsstock et al., 1993, Biophys. J., 65: 205-214; Rybakova et al., 1996, J. Cell. Biol., 135:661-672). […] The purified recombinant proteins were incubated with actin filaments and then were centrifuged at 20,800×g. Both supernatants (S) and pellets (P) were applied to SDS-PAGE gel, followed by Coomassie staining. 1, rAFAP-110 with actin filaments; 2, rAFAP-110^Δcterm with actin filaments; 3, rAFAP-110 only; 4, rAFAP-110^Δcterm only; 5, actin filaments only. FIG. 8B is a graph of cross-linked actin filaments versus free rAFAP-110. rAFAP-110 at 0.05,0.11,0.21,0.43, 0.86, and 2.14 μM was incubated with the 2 μM concentration of G-actin polymerized into actin filaments. After the incubation, the reactions were centrifuged at 20,800×g. Both supernatants and pellets were applied to SDS-PAGE gel, followed by the Western blot analysis to detect rAFAP-110 and Coomassie blue staining to detect actin, respectively. The data of cross-linked actin filaments and free rAFA-110 were gathered by scanning densitometry of SDS-PAGE gel analysis.

actin filaments [3] = test: Confocal microscopy of rhodamine-phalloidin-labeled actin filaments; format: biochemical; conditions: 0.5 μM protein, 2 μM actin filaments; FIG. 13B
Text: as §1
To further test AFAP-110's capability to cross-link actin filaments, we analyzed rhodamine-phalloidin-labeled actin filaments for cross-linking by confocal microscopy. In FIG. 9A, purified rAFAP-110 or rAFAP-110^Δcterm were incubated with rhodamine-phalloidin-labeled actin filaments. […] 1, actin filaments only; 2, rAFAP-110 with actin filaments; 3, rAFAP-110^Δcterm with actin filaments. FIG. 9B presents confocal microscopy images. Different concentrations of α-actinin (top two panels, low=0.0625 μM and high=1.25 μM) and rAFAP-110 (bottom two panels, low=0.106 μM and high=2.1 μM) were incubated with rhodamine-phalloidin-labeled actin filaments. […] Actin filaments labeled with rhodamine-phalloidin appeared uniformly fluorescent in the absence of an actin binding protein (FIG. 9A1). […] Electron microscopy was used to confirm rAFAP-110's ability to cross-link actin filaments.

[4] = after treatment with 100 nM PMA

Row | Molecule | increase in phosphoserine of AFAP-110 [1] | increase in phosphothreonine of AFAP-110 [1] | time in which the changes occur (C3H10T1/2 cells; 100 nM PMA) | actin structures upon PMA treatment (C3H10T1/2 cells; 100 nM PMA, serum-starved cells expressing AFAP-110) | time by which cells completely reverted to quiescent phenotype (C3H10T1/2 cells; [4]) | time by which changes largely revert (C3H10T1/2 cells; [4]) | ability to coprecipitate actin filaments compared with rAFAP-110 (actin filaments [2]) | confocal fluorescence pattern of actin filaments (actin filaments [3])
1 | CCCCCCCCCCCCCC(=O)O[C@@H]1[C@@H](C)[C@@]2(O)[C@@H](C=C(CO)C[C@]3(O)C(=O)C(C)=C[C@@H]23)[C@@H]2C(C)(C)[C@]12OC(C)=O [PMA] | 3.9 fold | 5.7 fold | ≤ 15 min | Lamellipodia, filopodia, and rosettes appear | ≤ 6 h | ≤ 2 h | – | –
2 | B1 | – | – | – | – | – | – | increased the ability of rAFAP-110 to coprecipitate actin filaments | large aggregates of fluorescence
